According to article PMC4399811 (Bioorganic & medicinal chemistry letters, 2015):
pEC50, pIC50: −log10 of the molar value. ≈ marks a conversion by molar mass, not a printed value.

Columns and labels:
[1] = tested on: other mGlu receptors (mGlu1–4,6–8, except mGlu3); experiment: selectivity profiling against the other mGlu receptors; assay type: cell-based; details: read-out: other mGlu EC50; mGlu receptors other than mGlu5 and mGlu3
mGlu3 [2] = target: T1, mGlu3 (Homo sapiens, UniProt Q14832); experiment: cell-based
CYP2C9 = CYP2C9 (Homo sapiens, UniProt P11712); experiment: CYP inhibition cocktail assay using HLM and known substrates
CYP3A4 = CYP3A4 (Homo sapiens, UniProt P08684); experiment: as above
CYP1A2 = target: T2, CYP1A2 (Homo sapiens, UniProt P05177); experiment: as above
T2 sequence (P05177 1-516): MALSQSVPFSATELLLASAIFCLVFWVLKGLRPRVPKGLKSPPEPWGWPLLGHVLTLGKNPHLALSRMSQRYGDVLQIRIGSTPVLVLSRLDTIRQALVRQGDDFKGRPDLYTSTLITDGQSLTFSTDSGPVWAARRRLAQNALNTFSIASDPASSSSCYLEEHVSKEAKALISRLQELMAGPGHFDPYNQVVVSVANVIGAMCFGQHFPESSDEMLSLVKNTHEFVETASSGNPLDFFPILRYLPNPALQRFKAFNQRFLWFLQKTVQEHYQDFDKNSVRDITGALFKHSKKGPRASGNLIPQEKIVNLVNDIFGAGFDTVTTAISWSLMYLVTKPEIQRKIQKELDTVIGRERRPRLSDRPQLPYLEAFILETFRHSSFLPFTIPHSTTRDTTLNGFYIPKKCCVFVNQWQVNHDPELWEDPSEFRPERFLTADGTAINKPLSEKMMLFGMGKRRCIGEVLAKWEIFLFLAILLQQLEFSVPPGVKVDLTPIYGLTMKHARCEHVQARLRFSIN

CYP2D6 = CYP2D6 (Homo sapiens, UniProt P10635); experiment: as above
in vivo PK study in rats = details: rat
mGlu3 [3] = target: T1, mGlu3; details: NAM
dogs = experiment: adverse effects in in vivo PK studies in dogs; set-up: species or system dog; details: 0.5 mg/mL i.v.
rats = experiment: adverse effects in rats; assay type: in vivo, rat
rat mGlu5 receptors = rat mGlu5 receptors (Rattus norvegicus, UniProt P31424); experiment: 'triple add' calcium mobilization assay, mGlu5 PAM/NAM/agonist modes; assay type: cell-based; details: for fold increase in mGlu5 potency vs series 3 counterpart: dihydro analogue 4 vs corresponding analogue 3
[4] = solubility in fasted simulated intestinal fluid; assay type: physicochemical; details: fasted simulated intestinal fluid (FaSSIF), pH 7.2, fassif
[5] = tested on: amphetamine-induced hyperlocomotion; experiment: reversal of amphetamine-induced hyperlocomotion; details: rat

T1 sequence (Q14832 23-879): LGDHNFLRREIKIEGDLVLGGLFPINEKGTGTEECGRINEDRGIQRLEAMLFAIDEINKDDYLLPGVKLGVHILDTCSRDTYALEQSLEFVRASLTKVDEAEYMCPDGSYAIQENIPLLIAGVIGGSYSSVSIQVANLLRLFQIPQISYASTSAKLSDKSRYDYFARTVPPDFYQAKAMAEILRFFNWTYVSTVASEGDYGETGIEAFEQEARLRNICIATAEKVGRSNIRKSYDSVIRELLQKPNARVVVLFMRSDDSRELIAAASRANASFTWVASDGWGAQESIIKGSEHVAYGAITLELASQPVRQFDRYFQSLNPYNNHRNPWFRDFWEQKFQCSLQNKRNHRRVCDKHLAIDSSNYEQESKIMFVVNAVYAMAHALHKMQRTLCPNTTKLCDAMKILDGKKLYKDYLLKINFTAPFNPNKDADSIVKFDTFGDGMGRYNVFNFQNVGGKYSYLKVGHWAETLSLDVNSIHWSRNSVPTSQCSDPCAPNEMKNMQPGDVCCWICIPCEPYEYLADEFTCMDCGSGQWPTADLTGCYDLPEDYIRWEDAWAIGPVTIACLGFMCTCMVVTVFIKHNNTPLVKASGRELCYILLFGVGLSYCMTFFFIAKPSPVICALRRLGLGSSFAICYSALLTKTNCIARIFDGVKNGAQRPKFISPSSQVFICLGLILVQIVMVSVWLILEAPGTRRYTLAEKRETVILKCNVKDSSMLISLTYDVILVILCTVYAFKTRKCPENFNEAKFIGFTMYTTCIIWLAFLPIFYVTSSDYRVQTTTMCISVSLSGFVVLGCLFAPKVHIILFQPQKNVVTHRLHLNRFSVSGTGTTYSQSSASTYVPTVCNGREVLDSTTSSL
Sequence of rat mGlu5 receptors (P31424 21-1203): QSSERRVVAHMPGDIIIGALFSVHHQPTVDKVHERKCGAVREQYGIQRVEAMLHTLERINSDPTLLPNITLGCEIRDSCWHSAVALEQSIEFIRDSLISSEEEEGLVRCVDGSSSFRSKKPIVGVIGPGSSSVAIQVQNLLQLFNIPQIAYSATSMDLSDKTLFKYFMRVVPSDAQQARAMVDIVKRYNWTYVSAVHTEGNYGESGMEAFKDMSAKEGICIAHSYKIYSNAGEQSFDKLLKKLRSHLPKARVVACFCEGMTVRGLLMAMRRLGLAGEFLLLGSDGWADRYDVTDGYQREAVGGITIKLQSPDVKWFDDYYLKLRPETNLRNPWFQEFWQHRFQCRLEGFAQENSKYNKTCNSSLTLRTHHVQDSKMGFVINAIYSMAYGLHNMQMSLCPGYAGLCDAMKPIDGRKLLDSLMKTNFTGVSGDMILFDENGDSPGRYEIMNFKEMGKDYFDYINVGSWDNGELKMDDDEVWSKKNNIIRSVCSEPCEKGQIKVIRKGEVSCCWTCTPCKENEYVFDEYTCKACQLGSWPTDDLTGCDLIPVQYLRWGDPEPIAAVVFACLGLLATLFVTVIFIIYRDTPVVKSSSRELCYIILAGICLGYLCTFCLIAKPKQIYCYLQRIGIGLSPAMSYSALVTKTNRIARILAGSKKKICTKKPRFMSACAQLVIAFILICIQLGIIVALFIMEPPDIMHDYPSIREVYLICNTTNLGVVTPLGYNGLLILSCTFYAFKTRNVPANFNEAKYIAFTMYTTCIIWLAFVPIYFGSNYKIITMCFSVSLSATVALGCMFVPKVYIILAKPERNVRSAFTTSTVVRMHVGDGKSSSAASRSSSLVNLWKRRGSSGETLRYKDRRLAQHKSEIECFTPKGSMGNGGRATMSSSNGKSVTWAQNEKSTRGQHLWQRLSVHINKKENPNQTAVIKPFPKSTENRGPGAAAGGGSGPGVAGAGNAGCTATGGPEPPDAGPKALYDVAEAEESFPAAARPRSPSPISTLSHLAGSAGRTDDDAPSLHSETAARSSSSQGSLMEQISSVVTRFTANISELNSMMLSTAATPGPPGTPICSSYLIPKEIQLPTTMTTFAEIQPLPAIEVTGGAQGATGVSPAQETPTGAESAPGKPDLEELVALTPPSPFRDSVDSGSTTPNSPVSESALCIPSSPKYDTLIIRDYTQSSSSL
Sequence of CYP2C9 (P11712 whole entry): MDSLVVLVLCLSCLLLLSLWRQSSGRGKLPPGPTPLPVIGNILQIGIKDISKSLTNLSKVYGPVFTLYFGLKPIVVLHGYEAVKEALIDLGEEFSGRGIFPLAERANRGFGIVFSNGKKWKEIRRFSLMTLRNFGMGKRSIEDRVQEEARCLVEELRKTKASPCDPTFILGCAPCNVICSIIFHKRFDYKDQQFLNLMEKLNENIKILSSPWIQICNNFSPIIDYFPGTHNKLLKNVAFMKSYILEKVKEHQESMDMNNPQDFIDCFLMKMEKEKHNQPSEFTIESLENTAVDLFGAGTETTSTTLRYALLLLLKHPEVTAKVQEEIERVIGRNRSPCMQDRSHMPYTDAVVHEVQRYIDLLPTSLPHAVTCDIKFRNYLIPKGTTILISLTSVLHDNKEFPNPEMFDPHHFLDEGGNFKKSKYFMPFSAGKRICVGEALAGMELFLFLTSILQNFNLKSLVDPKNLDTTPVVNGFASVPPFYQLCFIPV
Sequence of CYP2D6 (P10635 whole entry): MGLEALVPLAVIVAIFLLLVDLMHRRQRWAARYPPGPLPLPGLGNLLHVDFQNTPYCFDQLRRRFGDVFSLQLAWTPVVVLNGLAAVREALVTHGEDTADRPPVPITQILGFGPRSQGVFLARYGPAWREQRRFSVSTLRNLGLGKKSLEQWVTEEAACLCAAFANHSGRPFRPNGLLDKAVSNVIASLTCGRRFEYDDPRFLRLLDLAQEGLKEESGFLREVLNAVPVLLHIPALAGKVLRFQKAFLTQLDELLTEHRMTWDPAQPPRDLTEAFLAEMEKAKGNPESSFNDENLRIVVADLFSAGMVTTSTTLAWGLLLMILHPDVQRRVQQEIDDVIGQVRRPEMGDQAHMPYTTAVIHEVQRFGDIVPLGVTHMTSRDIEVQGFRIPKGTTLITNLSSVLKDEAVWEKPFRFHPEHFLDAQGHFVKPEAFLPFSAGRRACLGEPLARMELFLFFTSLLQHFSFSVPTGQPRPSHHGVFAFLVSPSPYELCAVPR
Sequence of CYP3A4 (P08684 whole entry): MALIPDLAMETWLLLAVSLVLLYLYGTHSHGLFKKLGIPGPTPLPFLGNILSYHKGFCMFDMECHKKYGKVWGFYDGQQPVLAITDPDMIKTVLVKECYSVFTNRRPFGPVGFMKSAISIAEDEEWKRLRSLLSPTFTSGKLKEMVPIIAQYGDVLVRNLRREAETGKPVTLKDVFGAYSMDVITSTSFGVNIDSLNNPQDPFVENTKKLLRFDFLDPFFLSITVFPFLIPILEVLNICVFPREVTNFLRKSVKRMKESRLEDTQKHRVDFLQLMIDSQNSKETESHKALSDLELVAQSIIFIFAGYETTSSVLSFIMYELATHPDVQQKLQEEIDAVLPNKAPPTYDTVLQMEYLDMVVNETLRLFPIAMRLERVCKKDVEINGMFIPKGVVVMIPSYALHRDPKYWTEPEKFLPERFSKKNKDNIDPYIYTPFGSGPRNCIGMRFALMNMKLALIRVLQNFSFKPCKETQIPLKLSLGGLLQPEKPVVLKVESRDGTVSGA

`O=c1n(-c2ccc(F)cc2)ccc2nc(COc3ccccc3)cn12` [3e] showed a pEC50 [1] of less than 5.00, a pEC50 (mGlu3 [2]) of 6.20 and a pIC50 (CYP2C9) of less than 4.70. For the same compound, the pIC50 (CYP3A4) was less than 4.70, the pIC50 (CYP1A2) was 5.03 and the pIC50 (CYP2D6) was less than 4.70.

In the case of `O=C1N(c2ccc(F)cc2)CCc2nc(COc3ccccc3)cn21` [4a], the pEC50 [1] was less than 5.00, the clearance (in vivo PK study in rats; in vivo, 1 mg/kg) was 23.3 mL/min/kg and the “brain AUC” value (in vivo PK study in rats; 0.5-7.0 h) was 12.7 µM-h. The “mGlu3 % Glu Max” value (mGlu3 [3]) was 3%, the “CNS-mediated side effects in PK studies” value (dogs) was “dizziness” and the pEC50 (mGlu3 [2]) was 6.54. The “CNS-mediated side effects, modified Irwin neurological test battery” value (rats; 120 mg/kg) was “pro-convulsive behavior”, the “adverse effects in PK and pharmacological experiments” value (rats; up to 100 mg/kg p.o.) was “no significant adverse effects” and the mGlu5 agonistic activity (rat mGlu5 receptors; up to the highest concentration tested of 30 µM) was “lack of mGlu5 agonistic activity”. For the same compound, the solubility [4] was 6 µg/mL (≈ 17.8 µM) and the “lowest active oral dose, reversal of AIH” value [5] was 3 mg/kg.

For `O=C1N(c2cccc(F)c2)CCc2nc(COc3ccccc3)cn21` [4b], the “fold increase in mGlu5 potency vs series 3 counterpart” value (“fold increase in mGlu5 potency” for short) (rat mGlu5 receptors) was 1.8–2.4 fold.

In the case of `Cc1cc(N2CCc3nc(COc4ccccc4)cn3C2=O)ccc1F` [4c], the “fold increase in mGlu5 potency” value (rat mGlu5 receptors) was 1.8–2.4 fold.

With `O=C1N(c2ccc(F)cc2)CCc2nc(COc3cccc(F)c3)cn21` [4h] the “fold increase in mGlu5 potency” value (rat mGlu5 receptors) was no more than 3.3 fold.

For `O=C1N(c2ccc(F)cc2)CCc2nc(COc3ccc(F)cc3)cn21` [4i], the “fold increase in mGlu5 potency” value (rat mGlu5 receptors) was no more than 3.3 fold.
